Key:
DHFR (Rv2763c) = DHFR (Rv2763c) (Mycobacterium tuberculosis, UniProt P9WNX1); format: binding; conditions: melting curve, M. tuberculosis lysate; Tm of DHFR without P218 is 57° C.
Rv0289/EspG3 = Rv0289/EspG3 (Mycobacterium tuberculosis, UniProt P9WJC7)
Rv0289/EspG3, sequence (P9WJC7 whole entry): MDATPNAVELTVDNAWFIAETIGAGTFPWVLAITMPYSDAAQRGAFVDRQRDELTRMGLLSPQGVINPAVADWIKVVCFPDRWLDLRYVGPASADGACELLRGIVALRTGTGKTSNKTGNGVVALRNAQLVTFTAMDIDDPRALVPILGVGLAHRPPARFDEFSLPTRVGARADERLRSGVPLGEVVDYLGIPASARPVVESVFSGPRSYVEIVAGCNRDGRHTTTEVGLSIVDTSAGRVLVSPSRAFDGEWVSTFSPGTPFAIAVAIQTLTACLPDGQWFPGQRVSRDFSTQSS

DHFR (Rv2763c), sequence (P9WNX1 whole entry): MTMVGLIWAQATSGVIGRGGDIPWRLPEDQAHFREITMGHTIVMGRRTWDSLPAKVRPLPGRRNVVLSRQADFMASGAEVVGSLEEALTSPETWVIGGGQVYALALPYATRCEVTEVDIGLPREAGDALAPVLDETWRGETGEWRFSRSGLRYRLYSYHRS

`CCc1nc(N)nc(N)c1OCCCOc1ccccc1CCC(=O)O` [P218] was tested, and the “temperature at the inflection point (Tm) of DHFR in the presence of P218” value (DHFR (Rv2763c)) was 60.9 °C and the “difference in the Tm values in the presence and absence of compound” value (Rv0289/EspG3) was “no difference”.

Reference: patent publication US10978281B2, “Method to obtain unbiased identification of interaction of test compounds with the proteome” (Institute for Systems Biology, priority 2015, dated 2021)
